Tested on: E. coli ATCC 25922
Assay: Resistance development assay
Format: cell-based

`CNC(C)C1CCC(N)C(OC2C(N)CC(N)C(OC3OCC(C)(O)C(NC)C3O)C2O)O1` (centres unmarked) [gentamicin] was tested, and the “day on which resistance was demonstrated” value (sequential culturing over 25 days) was “fifth” and the “fold increase of MIC value” (sequential culturing, by the 23rd day) was 64 fold.
